Where two headings read alike, the source gives them in different places.
Experiments:
[1] = tested on: H460 non-small cell lung cancer human tumor cell line; test: In vitro human tumor cell line cytotoxicity (proliferation) assay on H460, CTG, with or without AST-3021; format: cell-based; details: for IC50: Homo sapiens
Experimental: In vitro human tumor cell line cytotoxicity assay was used.
In vitro proliferation data on the H460 non-small cell lung cancer human tumor cell line (cell line which highly expresses AKR1C3) is reported below in the compound table.
IC50 values were obtained with the following steps:
Specifically, exponentially growing cells were seeded at a density of 2×10^3 cells/100 μL/well in a 96-well plate and incubated at 37° C. in 5% CO2, 95% air and 100% relative humidity for 24 hours. The test compound was administered alone: 24 hours after cell plating, the compound acted alone, 99 μL of growth medium per well was added, and 1 μL of the compound prepared at 200× was added, and the plate was shaken gently to ensure even mixing, then placed into an incubator of 37° C., 5% CO2. After further cultivation for 72 hours, the number of live cells was detected using CTG. The CTG detection method was as follows: the cell plate to be tested was placed at room temperature to equilibrate for 30 minutes, and 100 μL of medium per well was discarded. 25 μL of CTG reagent (CellTiter-Glo® kit) per well was added, and the plate was placed in a high-speed shaker to oscillate for 2 minutes, and placed at room temperature in the dark for 30 minutes. The chemiluminescence signal value was read using a multimode microplate reader, with a read time of 1000 ms.
Similarly, in order to further verify that the compounds were activated by human AKR1C3 (aldosterone reductase family 1 member C3), the effect of some of the compounds on the proliferation of H460 cancer cells was tested with pretreatment with a specific AKR1C3 enzyme inhibitor AST-3021 (3 μM). The detailed experimental procedure was as follows: 24 hours after cell plating, 98 μL of growth medium per well was added, and 1 μL of 200×compound AST-3021 was added to each well, and the plate was shaken gently to ensure even mixing, and then placed into an incubator; after 2 hours, 1 μL of the test compound prepared at 200× was added, and the plate was shaken gently to ensure even mixing and then laced into an incubator of 37° C., 5% CO2. The inhibitor used was compound 36, i.e.
in Flanagan et al., Bioorganic and Medicinal Chemistry (2014), page 962-977, and is referred to as AST-3021 in this invention. The values measured in this case are values corresponding to +AST-3021 IC50 (nM) in Table 1.
The value corresponding to +AST-3021 IC50 (nM) divided by the value corresponding to IC50 (nM) is the specific activation ratio. The relative magnitude of the specific activation ratio can be used to evaluate whether this compound is a cytotoxic compound activated by human AKR1C3 (aldosterone reductase family 1 member C3): when the specific activation ratio is less than 1, it is considered that the compound is not activated by human AKR1C3 (aldosterone reductase family 1 member C3); when the specific activation ratio is greater than 1, it is considered that the compound is activated by human AKR1C3 (aldosterone reductase family 1 member C3), and the higher the value, the higher the activation degree and the selectivity of AKR1C3.

[2] = tested on: H460 cell line with high expression of AKR1C3 enzyme; details: cited from earlier work
H460 cancer cells = test: Inhibition of H460 cancer cells in the presence or absence of AKR1C3 inhibitor AST-3021 (section 2.1); format: cell-based, human; details: for IC50: Homo sapiens
Experimental: The experimental scheme was as follows: • 1) H460 cell suspension was added to a 96-well plate with 100 μL per well at a cell density of 2000/well. • 2) Cells were incubated in an incubator of 37° C., 5% CO2 overnight. • 3) Compound treatment
Combined administration: 24 hours after cell plating, 98 μL of growth medium per well was added. 1 μL of AST-3021 was added to each well (final concentration 3 μM), and the plate was shaken gently to ensure even mixing, and then placed into an incubator; after 2 hours, 1 μL of the test compound at different concentrations was added, and the plate was shaken gently to ensure even mixing, and then placed into an incubator of 37° C., 5% CO2.
Administration of the drug alone: 24 hours after cell plating, 99 μL of growth medium per well was added.
In order to further verify that the compound was activated specifically by human AKR1C3 (aldosterone reductase family 1 member C3), the compound was added following the pretreatment of cells with the specific AKR1C3 enzyme inhibitor AST-3021 (3 μM), and the effect of the presence of AST-3021 on the proliferation of H460 cancer cells was tested
IC50 data of inhibitory effect of the compounds gemcitabine and H11 on H460 cancer cells in the presence or absence of the AKR1C3 inhibitor AST-3021 is shown in Table 2 and Table 3.

[3] = intraperitoneal injection, once every 3 days, for four consecutive doses; literature; cited from earlier work
[4] = tested on: HuPrime pancreatic cancer xenograft model PA1222; test: In vivo pharmacodynamic experiment in HuPrime pancreatic cancer PA1222 PDX model; details: for Tumor volume (mm^3) (x ± S): Group 2, 80 mg/kg i.p.
[5] = Plasma stability in rat plasma; details: for Remaining percentage (%): rat plasma
Experimental: 1 mM working solution of the test compound was prepared in DMSO. 1 mM working solution of propantheline was prepared in acetonitrile. 1 mM working solution of lovastatin (mevinolin) was prepared in DMSO. Propantheline was used as a positive control for human, monkey, dog, and mouse plasma stability tests. Lovastatin was a positive control for rat plasma stability test.
• A. 398 μL of plasma per well was added to the culture plate, and the plate was preheated at 37° C. for 15 minutes. • B. After preincubation, 2 μL of working solution (test solution or control solution) was added to the 398 μL plasma mentioned above, resulting in a final concentration of 5 μM. The final concentration of organic solvents was 0.5%. The test was conducted in duplicate. • C. The reaction sample was incubated at 37° C. • D. 50 μL was extracted from the reaction sample at 0, 15, 30, 60, and 120 minutes, respectively. […] 100 μL of supernatant was taken and transferred to a new plate. The supernatant was diluted with ultrapure water according to the LC-MS signal response and peak shape.
Samples were analyzed with LC-MS/MS. All calculations were conducted using Microsoft Excel. The peak area ratio was determined from the extracted ion chromatogram. • (1) The percentage of the remaining compound at each time point was calculated with the following formula: […]
wherein the slope value k was determined by linear regression of the natural logarithm of the remaining percentage of the parent drug vs. incubation time curve.

[6] = Plasma stability in human plasma; format: in vitro ADME
Experimental: (§1) The final concentration of organic solvents was 0.5%. The test was conducted in duplicate. • C.
(§2) Samples were analyzed with LC-MS/MS. All calculations were conducted using Microsoft Excel.

[7] = Plasma stability in monkey plasma; format: in vitro ADME
Experimental: as §1, §2

[8] = Plasma stability in dog plasma; format: in vitro ADME
Experimental: as §1, §2

[9] = Plasma stability in mouse plasma; format: in vitro ADME
Experimental: as §1, §2

[10] = NCI-H460, compound alone, 72 hours, read-out: IC50
[11] = NCI-H460, pretreatment with AKR1C3 inhibitor AST-3021 (3 μM), read-out: +AST-3021 IC50
[12] = Group 2, 80 mg/kg i.p. Q3D×4, Day 32

CC(C)NP(=O)(OCc1ccc([N+](=O)[O-])c(Oc2cccc(C(=O)N3CCCCC3)c2)c1)OCC1OC(n2ccc(N)nc2=O)C(F)(F)C1O (stereo not drawn) [Compound H35]
specific activation ratio (+AST-3021 IC50/IC50) [1]: 8.6 | IC50 [1, 10]: 454 nM | IC50 [1, 11]: 3900 nM

CC(C)NP(=O)(OCc1ccc([N+](=O)[O-])c(Oc2ccc(C(=O)N3CCCCC3)cc2)c1)OCC1OC(n2ccc(N)nc2=O)C(F)(F)C1O (stereo not drawn) [Compound H36]
specific activation ratio (+AST-3021 IC50/IC50) [1]: 3.1 | IC50 [1, 10]: 382 nM | IC50 [1, 11]: 1170 nM

CC(C)NP(=O)(OCc1ccc([N+](=O)[O-])c(Oc2ccc(-c3ccc(F)cc3)cc2)c1)OCC1OC(n2ccc(N)nc2=O)C(F)(F)C1O (stereo not drawn) [Compound H38]
specific activation ratio (+AST-3021 IC50/IC50) [1]: 507.6 | IC50 [1, 10]: 65.2 nM | IC50 [1, 11]: 33100 nM

CC(C)NP(=O)(OCc1ccc([N+](=O)[O-])c(Oc2ccc(-c3ccc(C(F)(F)F)cc3)cc2)c1)OCC1OC(n2ccc(N)nc2=O)C(F)(F)C1O (stereo not drawn) [Compound H39]
specific activation ratio (+AST-3021 IC50/IC50) [1]: 12.7 | IC50 [1, 10]: 2180 nM | IC50 [1, 11]: 27700 nM

CC(C)NP(=O)(OCc1ccc([N+](=O)[O-])c(Oc2ccc(-c3ccc(Cl)cc3)cc2)c1)OCC1OC(n2ccc(N)nc2=O)C(F)(F)C1O (stereo not drawn) [Compound H40]
specific activation ratio (+AST-3021 IC50/IC50) [1]: 86.9 | IC50 [1, 10]: 194 nM | IC50 [1, 11]: 16900 nM

CC(C)NP(=O)(OCc1ccc([N+](=O)[O-])c(Oc2ccc(-c3ccc(Cl)cc3)c(F)c2)c1)OCC1OC(n2ccc(N)nc2=O)C(F)(F)C1O (stereo not drawn) [Compound H42]
specific activation ratio (+AST-3021 IC50/IC50) [1]: 333.5 | IC50 [1, 10]: 57.1 nM | IC50 [1, 11]: 19000 nM

CC(C)NP(=O)(OCc1ccc([N+](=O)[O-])c(Oc2ccc(-c3ccccc3F)cc2)c1)OCC1OC(n2ccc(N)nc2=O)C(F)(F)C1O (stereo not drawn) [Compound H43]
specific activation ratio (+AST-3021 IC50/IC50) [1]: 257.8 | IC50 [1, 10]: 60 nM | IC50 [1, 11]: 15500 nM

CC(C)NP(=O)(OCc1ccc([N+](=O)[O-])c(Oc2ccc(-c3cccc(F)c3)cc2)c1)OCC1OC(n2ccc(N)nc2=O)C(F)(F)C1O (stereo not drawn) [Compound H44]
specific activation ratio (+AST-3021 IC50/IC50) [1]: 336.1 | IC50 [1, 10]: 51.3 nM | IC50 [1, 11]: 17300 nM

CCN(CCCCBr)P(=O)(OCc1ccc([N+](=O)[O-])c(Oc2ccc(-c3ccccc3)cc2)c1)OCC1OC(n2ccc(N)nc2=O)C(F)(F)C1O (stereo not drawn) [TH3057]
IC50 ([2]; with addition of AKR1C3 enzyme inhibitor): 5000 nM | IC50 ([2]; without AKR1C3 enzyme inhibitor): 200 nM

Nc1ccn([C@@H]2O[C@H](CO)[C@@H](O)C2(F)F)c(=O)n1 [gemcitabine]
Specific activation ratio (H460 cancer cells; H460): 1.08 | IC50 (H460 cancer cells; NCI-H460, 72 h, H460, 72 hours, read-out: IC50 (nmol/L) AST-3021 not added): 13.2 nmol/L | IC50 (H460 cancer cells; NCI-H460, H460, AST-3021 3 μM, read-out: IC50 (nmol/L) AST-3021 added): 14.2 nmol/L | MTD [3]: 120 mg/kg | Relative tumor volume (x ± S) [4, 12]: 0.06 ± 0.04 | T/C (%) [4, 12]: 0.97% | TGI (%) [4, 12]: 99.03% | complete tumor inhibition rate [4, 12]: 60% | Tumor volume (x ± S) ([4]; Group 2, 80 mg/kg i.p. Q3D×4, Day 32, mean ± standard error): 6.79 ± 4.33 | Tumor volume (mm^3) (x ± S) ([4]; day 0): 102.95 mm^3 | Tumor volume (mm^3) (x ± S) ([4]; day 4): 104.07 mm^3 | Tumor volume (mm^3) (x ± S) ([4]; day 7): 74.43 mm^3 | Tumor volume (mm^3) (x ± S) ([4]; day 11): 38.92 mm^3 | Tumor volume (mm^3) (x ± S) ([4]; day 14): 24.66 mm^3 | Tumor volume (mm^3) (x ± S) ([4]; day 18): 17.66 mm^3 | Tumor volume (mm^3) (x ± S) ([4]; day 21): 12.13 mm^3 | Tumor volume (mm^3) (x ± S) ([4]; day 25): 10.23 mm^3 | Tumor volume (mm^3) (x ± S) ([4]; day 28): 7.97 mm^3 | Tumor volume (mm^3) (x ± S) ([4]; day 32): 6.79 mm^3

CC[C@H](C)C(=O)O[C@H]1C[C@@H](C)C=C2C=C[C@H](C)[C@H](CC[C@@H]3C[C@@H](O)CC(=O)O3)[C@H]21 [lovastatin, reference compound]
Remaining percentage (%) ([5]; 0 min, 5 μM, 37° C.): 100.00% | Remaining percentage (%) ([5]; 15 min): 5.27% | Remaining percentage (%) ([5]; 30 min): 0.52% | Remaining percentage (%) ([5]; 60 min): 0.45% | Remaining percentage (%) ([5]; 120 min): 0.34% | t1/2 ([5]; rat, plasma): 3.53 min

CC(C)[N+](C)(CCOC(=O)C1c2ccccc2Oc2ccccc21)C(C)C [propantheline, reference compound]
Remaining percentage (%) ([6]; 0 min, 5 μM, 37° C.): 100.00% | Remaining percentage (%) ([6]; 15 min): 81.24% | Remaining percentage (%) ([6]; 30 min): 59.99% | Remaining percentage (%) ([6]; 60 min): 32.76% | Remaining percentage (%) ([6]; 120 min): 7.75% | half-life at 5 µM ([6]; human): 36.6 min | Remaining percentage (%) ([7]; 0 min, 5 μM, 37° C.): 100.00% | Remaining percentage (%) ([7]; 15 min): 90.53% | Remaining percentage (%) ([7]; 30 min): 77.57% | Remaining percentage (%) ([7]; 60 min): 70.39% | Remaining percentage (%) ([7]; 120 min): 49.22% | half-life at 5 µM ([7]; monkey): 121 min | Remaining percentage (%) ([8]; 0 min, 5 μM, 37° C.): 100.00% | Remaining percentage (%) ([8]; 15 min): 101.04% | Remaining percentage (%) ([8]; 30 min): 87.98% | Remaining percentage (%) ([8]; 60 min): 85.64% | Remaining percentage (%) ([8]; 120 min): 66.64% | half-life at 5 µM ([8]; dog): 203 min | half-life at 5 µM [9]: 21.8 min | Remaining percentage (%) ([9]; 0 min, 5 μM, 37° C.): 100.00% | Remaining percentage (%) ([9]; 15 min): 69.89% | Remaining percentage (%) ([9]; 30 min): 43.11% | Remaining percentage (%) ([9]; 60 min): 15.28% | Remaining percentage (%) ([9]; 120 min): 2.03%
